Measurements as given in ChEMBL document CHEMBL3301361, “Experimental in vitro DMPK and physicochemical data on a set of publicly disclosed compounds”.
≈ marks a conversion by molar mass, not a printed value.

Legend:
in vitro = settings: human, plasma
physchem [1] = settings: pH 7.4 buffer
physchem [2] = settings: octan-1-ol/water

SMILES | fraction unbound at 5 h (in vitro; PPB) | solubility thermodynamic (physchem [1]) [µM] | logD (physchem [2]; pH 7.4, LogD7.4) | also measured
CC(=O)S[C@@H]1CC2=CC(=O)CC[C@]2(C)C2CC[C@@]3(C)C(CC[C@@]34CCC(=O)O4)C21 (stereo partly specified) | 0.24 |  |  | 
NC(=O)c1cccc2c3c([nH]c12)CCCC3 | 0.28 |  |  | 
O=C(Cc1cccs1)Nc1ccon1 | 0.563 |  |  | 
Cc1ccc(CNC(=O)CCS(=O)(=O)c2ccc(Br)cc2)cc1 |  |  |  | fraction unbound at 5 h (in vitro): 0.013
CN1CCN2c3ccccc3CC3(C(=O)N(C)C(=O)N(C)C3=O)C2C1 (stereo unspecified) |  |  |  | fraction unbound at 5 h (in vitro): 0.035
Cc1ccc(Cl)cc1NC(=O)CCS(=O)(=O)c1ccc(Br)s1 |  |  |  | fraction unbound at 5 h (in vitro): 0.0111
O=C(CCS(=O)(=O)c1ccc(Br)cc1)Nc1ccc2c(c1)OCO2 |  |  |  | fraction unbound at 5 h (in vitro): 0.0119
COc1cc(/C=C2\SC(=O)NC2=O)ccc1Oc1ccc(C#N)cc1C(F)(F)F |  |  |  | fraction unbound at 5 h (in vitro): 0.0005
Nc1nc(OCC2CCC2)nc2c1ncn2[C@@H]1O[C@H](CF)[C@@H](O)[C@H]1O | 0.228 |  |  | 
C[C@H]1O[C@@H](n2cnc3c(N)nc(OCC4CC45CC5)nc32)[C@H](O)[C@@H]1O (stereo partly specified) | 0.249 |  |  | 
O=C1COc2ccc(CNC3CCN(CCN4C(=O)COc5ccc([N+](=O)[O-])cc54)CC3)nc2N1 |  |  |  | fraction unbound at 5 h (in vitro): 0.249
CC(C(=O)OC1CC[N+](C)(C)CC1)(c1ccccc1)N1CCCCC1 (stereo unspecified) | 0.78 |  |  | 
CN[C@@H](C)C(=O)N[C@H](C(=O)N[C@H]1CCN(CCCc2ccccc2)C1)C1CCCCC1 | 0.36 |  |  | 
CN[C@@H](C)C(=O)N[C@H](C(=O)N[C@H]1CCCCN(CCc2ccccc2)C1)C1CCCCC1 | 0.262 |  |  | 
COc1cc(OC)c(S(=O)(=O)N2c3ccccc3CCC2C)cc1NC(=S)NCC(=O)O (stereo unspecified) | 0.309 |  |  | 
COc1cc(OC)c(S(=O)(=O)N2c3ccccc3CCC2C)cc1NC(=O)NCC(=O)O (stereo unspecified) | 0.28 |  |  | 
COc1cc(OC)c(S(=O)(=O)N2c3ccccc3CCC2C)cc1NC(=O)COCC(=O)O (stereo unspecified) | 0.266 |  |  | 
COc1cc(OC)c(S(=O)(=O)NCc2ccccc2N2CCC(CO)CC2)cc1NC(=O)CCC(=O)O | 0.403 |  |  | 
O=c1cc(N2CCOCC2)nc2n(Cc3cccc(F)c3)ccn12 | 0.22 |  |  | 
CC(C)NC(=O)c1cc2c(-n3ccc(C(F)(F)F)n3)c(-c3cncc(C(=O)O)c3)cnc2[nH]1 | 0.228 |  |  | 
CCNC(=O)c1cc2c(-n3nc(C(F)(F)F)cc3C)c(-c3cncc(C(=O)O)c3)cnc2[nH]1 | 0.454 |  |  | 
CCNC(=O)c1cc2c(-n3ccc(C(F)(F)F)n3)c(-c3cncc(C(N)=O)c3)cnc2[nH]1 | 0.36 |  |  | 
COc1cnc(-c2ccccn2)nc1N1CCOCC1 | 0.339 |  |  | 
N=C(N)c1ccc(CNC(=O)C2(NC(=O)[C@H](NCC(=O)O)C3CCCCC3)Cc3ccccc3C2)cc1 | 0.54 |  |  | 

SMILES | fraction unbound at 5 h (in vitro; PPB) | solubility thermodynamic (physchem [1]) [µM] | logD (physchem [2]; pH 7.4, LogD7.4) | also measured
COc1ccc2ncc(=O)n(CCN3CC[C@H](NCc4cc5c(cn4)OCCO5)[C@H](O)C3)c2c1 | 0.194 |  |  | 
COc1ccc2ncc(=O)n(CCN3CC[C@@H](NCc4ccc5c(n4)NC(=O)CO5)[C@@H](OC)C3)c2c1 | 0.28 |  |  | 
O=C1NCCc2[nH]c(-c3ccncc3)cc21 | 0.586 |  |  | 
Cc1csc(N)c1C(N)=O | 0.324 |  |  | 
CCc1[nH]c2nc(Sc3cnc4ccc[n+]([O-])c4c3)nc(N3CC[C@@H](N)C3)c2c1Cl | 0.204 |  |  | 
NC1=NC(c2ccc(F)cc2)Cc2ccc(F)cc21 (stereo unspecified) | 0.329 |  |  | 
O=C(O)c1cn(Cc2ccccc2)c2cc(N3CCNCC3)c(F)cc2c1=O | 0.299 |  |  | 
O=C(NCC12CC3CC(CC(C3)C1)C2)c1cc(C(=O)N2CC3CNCC(C2)O3)ccc1Cl | 0.309 |  |  | 
C[C@](N)(Cc1ccccc1)c1ccccc1 |  |  |  | fraction unbound at 5 h (in vitro): 0.179
CC(C)Cc1c(C(=O)C(N)=O)c2c(OCC(=O)NS(C)(=O)=O)cccc2n1Cc1ccccc1 |  |  |  | fraction unbound at 5 h (in vitro): 0.0251
COCCOc1cc2ncc(C(N)=O)c(Nc3ccc(F)cc3F)c2cc1N1CCN(C)CC1 | 0.454 |  |  | 
COCCOc1cc2ncc(C(N)=O)c(Nc3cccc(Cl)c3F)c2cc1N1CCN(C)CC1 | 0.392 |  |  | 
CCOc1cc2ncc(C(N)=O)c(Nc3ccc(F)cc3F)c2cc1N1CCCN(C)CC1 | 0.304 |  |  | 
CN1CCN(C(=O)c2cc(Cc3n[nH]c(=O)c4ccccc34)ccc2F)CC1 | 0.289 |  |  | 
NC1=NC(c2ccc(F)cc2)Cc2ccccc21 (stereo unspecified) | 0.36 |  |  | 
Cc1ccc(C(=O)Oc2ccc(C(O)CNC(C)(C)C)cc2OC(=O)c2ccc(C)cc2)cc1 (stereo unspecified) [BITOLTEROL] |  | 81.3 (≈ 37.5 µg/mL) | 3.57 | 
Cc1ccc2nc(NCCN)c3ncc(C)n3c2c1 [BMS-345541] |  | 246 (≈ 62.7 µg/mL) | 0.88 | 
Cc1cc2c(F)c(Oc3ncnn4cc(OC[C@@H](C)OC(=O)[C@H](C)N)c(C)c34)ccc2[nH]1 [BRIVANIB ALANINATE] |  | 37.2 (≈ 16.4 µg/mL) | 3.19 | 
NC1=NN(c2cccc(C(F)(F)F)c2)CC1 [BW-755C] |  | 1450 (≈ 331 µg/mL) | 2.55 | 
CC1(COc2ccc3c(c2)ncn3-c2ccc3cccc(N4CCC(N)CC4)c3n2)COC1 [CRENOLANIB] |  | 5.1 (≈ 2.26 µg/mL) | 1.99 | 
c1ccc(Nc2ccccc2)cc1 [DIPHENYLAMINE] |  | 178 (≈ 30.1 µg/mL) | 3.2 | 
Cc1oc(-c2ccccc2)nc1CCOc1ccc(C[C@H](Nc2ccccc2C(=O)c2ccccc2)C(=O)O)cc1 [FARGLITAZAR] |  | 35.5 (≈ 19.4 µg/mL) | 3.5 | 
CC1CCc2cc(F)cc3c(=O)c(C(=O)O)cn1c23 (stereo unspecified) [FLUMEQUINE] |  | 776 (≈ 203 µg/mL) |  | logD (physchem [2]; pH 7.4): 0.74
CC(C)C(=O)Nc1ccc([N+](=O)[O-])c(C(F)(F)F)c1 [FLUTAMIDE] |  | 89.1 (≈ 24.6 µg/mL) |  | logD (physchem [2]; pH 7.4): 3.46

SMILES | fraction unbound at 5 h (in vitro; PPB) | solubility thermodynamic (physchem [1]) [µM] | logD (physchem [2]; pH 7.4, LogD7.4) | also measured
Cc1cccc(-c2nn3c(c2-c2ccnc4ccc(C(N)=O)cc24)CCC3)n1 [GALUNISERTIB] |  | 182 (≈ 67.2 µg/mL) | 1.71 | 
COc1ccc2c(c1)[nH]c1c(C)nccc12 [HARMINE] |  | 55 (≈ 11.7 µg/mL) |  | logD (physchem [2]; pH 7.4): 2.9
O=C(N[C@@H](Cc1ccccc1)[C@@H](O)C(=O)N1C[C@@H](O)[C@@H](O)C1)c1cc2cc(Cl)ccc2[nH]1 [INGLIFORIB] |  | 436 (≈ 200 µg/mL) | 2.8 | 
O=c1cc(N2CCOCC2)oc2c(-c3ccccc3)cccc12 [LY-294002] |  | 302 (≈ 92.8 µg/mL) | 2.9 | 
NC1(c2ccc(-c3nc4ccn5c(=O)[nH]nc5c4cc3-c3ccccc3)cc2)CCC1 [MK-2206] |  | 4.7 (≈ 1.92 µg/mL) | 2.5 | 
Nc1ccccc1NC(=O)c1ccc(CNc2nccc(-c3cccnc3)n2)cc1 [MOCETINOSTAT] |  | 13.5 (≈ 5.35 µg/mL) | 2.28 | 
CCOC(=O)Nc1ccc2c(c1)N(C(=O)CCN1CCOCC1)c1ccccc1S2 [MORICIZINE] |  | 83.2 (≈ 35.6 µg/mL) | 3.1 | 
COc1cc2c(c(OC)c1OC)-c1ccc(O)cc1[C@@H](NC(C)=O)CC2 [N-ACETYLCOLCHINOL] |  | 813 (≈ 290 µg/mL) |  | logD (physchem [2]; pH 7.4): 1.81
COC(=O)C1=C(C)NC(C)=C(C(=O)OCC(C)C)C1c1ccccc1[N+](=O)[O-] (stereo unspecified) [NISOLDIPINE] |  | 2.2 (≈ 0.855 µg/mL) | 3.59 | 
NC(=O)c1c(OCc2c(F)cc(Br)cc2F)nsc1NC(=O)NCCCCN1CCCC1 [OSI-632] |  | 77.6 (≈ 41.3 µg/mL) | 2.5 | 
COc1ccc(Cc2nccc3cc(OC)c(OC)cc23)cc1OC [PAPAVERINE] |  | 38 (≈ 12.9 µg/mL) |  | logD (physchem [2]; pH 7.4): 2.81
Nc1ncnc2c1C(=O)N(c1ccc([C@H]3CC[C@H](CC(=O)O)CC3)cc1)CCO2 [PF-04620110] |  | 759 (≈ 301 µg/mL) | -0.5 | 
CCc1cccc(CC)c1NC(=O)N1Cc2n[nH]c(NC(=O)c3ccc(N4CCN(C)CC4)cc3)c2C1 [PHA-680632] |  | 107 (≈ 53.8 µg/mL) | 3.31 | 
CCc1ccc(CCOc2ccc(CC3SC(=O)NC3=O)cc2)nc1 (stereo unspecified) [PIOGLITAZONE] |  | 2 (≈ 0.713 µg/mL) | 2.8 | 
CC(=O)[C@H]1CC[C@H]2[C@@H]3CCC4=CC(=O)CC[C@]4(C)[C@H]3CC[C@]12C [PROGESTERONE] |  | 37.2 (≈ 11.7 µg/mL) |  | logD (physchem [2]; pH 7.4): 3.94
Cn1c(=O)c(Oc2ccc(F)cc2F)cc2cnc(NC3CCOCC3)nc21 [R-1487] |  | 20.4 (≈ 7.92 µg/mL) | 2.76 | 
O=C(CO)N1CCC(c2[nH]nc(-c3ccc(Cl)cc3)c2-c2ccncn2)CC1 [SD-0006] |  | 60.3 (≈ 24 µg/mL) | 1.85 | 
CC(=O)Nc1ccc(C(=O)Nc2ccccc2N)cc1 [TACEDINALINE] |  | 631 (≈ 170 µg/mL) | 0.82 | 
C[C@@H]1CN(Cc2ccc(F)cc2)[C@@H](C)CN1C(=O)c1cc2c(C(=O)C(=O)N(C)C)cn(C)c2cc1Cl [TALMAPIMOD] |  | 52.5 (≈ 26.9 µg/mL) |  | logD (physchem [2]; pH 7.4): 3.6
Cn1c(C#N)ccc1-c1ccc2c(c1)C(C)(C)OC(=S)N2 [TANAPROGET] |  | 3.6 (≈ 1.07 µg/mL) | 3.4 | 
COC1(c2cc(F)cc(OCc3ccc4c(ccc(=O)n4C)c3)c2)CCOCC1 [ZD-2138] |  | 3.2 (≈ 1.27 µg/mL) | 3.52 | 
FC(F)c1nc2ccccc2n1-c1nc(N2CCOCC2)nc(N2CCOCC2)n1 [ZSTK-474] |  | 0.7 (≈ 0.292 µg/mL) | 3.04 | 
